# Measurements from patent publication US5411933A, “Bromopropargyl quarternary ammonium compounds having antimicrobial activity” (Rohm & Haas Company, priority 1994, dated 1995).
# Tests used:
# Escherichia coli = assay: minimum inhibitory concentration, broth two-fold serial dilution test, Escherichia coli; type: cell-based, Escherichia coli ATCC 11229; conditions: for MIC: Escherichia coli, ATCC11229, Escherichia coli ATCC 11229, TSB media, lowest concentration with complete inhibition of growth, read-out: MIC (TSB media) Ecol; for MIC (TSB media) Ecol: Escherichia coli ATCC 11229, lowest concentration with complete inhibition of growth
# Method: (§1) Bactericidal and fungicidal evaluations of the compounds of Example 5 were carried out.
# (§2) A minimum inhibitory concentration (MIC) value is obtained using a broth, two-fold serial dilution test performed as follows: A stock solution or dispersion of the test compound, typically at a concentration of 1%, is made in a 5:3:2 solvent solution of acetone, methanol, and water. A volume of the stock solution is dispensed into culture media to give an initial starting test concentration of 500 ppm compound.
# (§3) When the test is ready to be done, each vessel in the dilution series, except the first vessel, contains an equal volume of compound free broth. The first vessel contains twice the volume of broth with the starting concentration of test compound. One half of the broth from the first vessel is transferred to the second vessel. After being mixed, one half the resulting volume is removed from the second vessel and transferred to the third vessel. The entire cycle is repeated sufficiently to give a series of concentrations amounting to 500, 250, 125, 63, 31, 16, 8 and 4, 2, 1, 0.5, 0.25 ppm respectively.
# (§4) Each vessel is then inoculated with a cell suspension of the appropriate test organism. Bacteria are grown in broth, fungi or agar slants for a time and at a temperature appropriate to the species being tested, and algae are a mixture of green algae and blue-green bacteria grown in a nutrient media. At the end of the growth period, in the case of bacteria, the broth is vortexed to disperse the cells.
# (§5) The vessels are then incubated at the appropriate temperature. After the incubation, the vessels are examined for growth/no growth. The minimum inhibitory concentration (MIC) is defined as the lowest concentration of compounds that results in complete inhibition of growth of the test organism.
# Pseudomonas aeruginosa = assay: minimum inhibitory concentration, broth two-fold serial dilution test, Pseudomonas aeruginosa; type: cell-based, Pseudomonas aeruginosa ATCC 15442; conditions: for MIC: Pseudomonas aeruginosa, ATCC15442, Pseudomonas aeruginosa ATCC 15442, TSB media, lowest concentration with complete inhibition of growth, read-out: MIC (TSB media) Psae; for MIC (TSB media) Psae: Pseudomonas aeruginosa ATCC 15442, lowest concentration with complete inhibition of growth
# Method: as §1, §2, §3, §4, §5
# 1. Pseudomonas aeruginosa
# Aspergillus niger = assay: minimum inhibitory concentration, broth two-fold serial dilution test, Aspergillus niger; type: cell-based, Aspergillus niger ATCC 6275; conditions: for MIC: Aspergillus niger, ATCC6275, Aspergillus niger ATCC 6275, TSB media, lowest concentration with complete inhibition of growth, read-out: MIC (TSB media) Anig; for MIC (TSB media) Anig: Aspergillus niger ATCC 6275, lowest concentration with complete inhibition of growth
# Method: as §1, §2, §3, §4
# (§6) In the case of fungi, the spores are harvested by pipetting water onto the slant and dislodging the spores with a sterile loop. The cell/spore suspension is standardized by controlling incubation time, temperature, and the volume of the diluent. The suspension is then used to inoculate the vessels containing the broth compound.
# as §5
# 3. Aspergillus niger 6275 Anig
# Rhodotorula rubra = assay: minimum inhibitory concentration, broth two-fold serial dilution test, Rhodotorula rubra; type: cell-based; conditions: lowest concentration with complete inhibition of growth; for MIC: Rhodotorula, TSB media, read-out: MIC (TSB media) Rrub
# Method: as §1, §2, §3, §4, §6, §5
# 4. Rhodotorula rubra Rrub
Compound,MIC (Escherichia coli) [µg/mL],MIC (Pseudomonas aeruginosa) [µg/mL],MIC (Aspergillus niger) [µg/mL],MIC (Rhodotorula rubra) [µg/mL],MIC (TSB media) Ecol (Escherichia coli) [ppm],MIC (TSB media) Psae (Pseudomonas aeruginosa) [ppm],MIC (TSB media) Anig (Aspergillus niger) [ppm],MIC (TSB media) Rrub (Rhodotorula rubra) [ppm]
"CCCCCCCCCCCCCC[N+]1(CC#CBr)CCOCC1 [Compound 4, 1-tetradecyl-1-(3-bromopropargyl)-morpholinium methanesulfonate]",–,–,–,–,32,500,< 4,< 4
"CCCCCCCCCCCCCC[N+]1(CC#CBr)CCOCC1 [Compound 2, 1-tetradecyl-1-(3-bromopropargyl)-morpholinium benzenesulfonate]",–,–,< 4,< 4,8,63,–,–
"CCCCCCCCCCCCCC[N+]1(CC#CBr)CCCCC1C (centres unmarked) [Compound 14, 1-tetradecyl-1-(3-bromopropargyl)-(2-methyl)piperidinium 4-methylbenzenesulfonate]",< 4,–,< 4,–,–,125,–,< 4
dimethyldodecyl ammonium 4-methylbenzenesulfonate [Compound 21],–,–,–,–,32,250,6.3,3.2
"CCCCCCCCCCCC[N+]1(CC#CBr)CCOCC1 [Compound 12, 1-dodecyl-1-(3-bromopropargyl)-morpholinium 4-methylbenzenesulfonate]",63,500,16,< 4,–,–,–,–
"CCCCCCCCCCCCCCCC[N+]1(CC#CBr)CCOCC1 [Compound 13, 1-hexadecyl-1-(3-bromopropargyl)-morpholinium methanesulfonate]",–,–,–,–,> 500,500,16,32
"CCCCCCCCCCCCCC[N+]1(CC#CBr)CCOCC1 [Compound 3, 1-tetradecyl-1-(3-bromopropargyl)-morpholinium 4-methylbenzenesulfonate]",–,–,–,–,8,250,< 4,< 4
"CCCCCCCCCCCCCC[N+]1(CC#CBr)CCCCC1 [Compound 6, 1-tetradecyl-1-(3-bromopropargyl)-piperidinium methanesulfonate]",–,–,< 4,< 4,> 500,> 500,–,–
"CCCCCCCCCCCCCC[N+]1(CC#CBr)CCCC1 [Compound 8, 1-tetradecyl-1-(3-bromopropargyl)-pyrrolidinium n-butanesulfonate]",–,–,–,–,< 4,250,< 4,< 4
"CCCCCCCCCCCCCC[N+]1(CC#CBr)CCCC1 [Compound 5, 1-tetradecyl-1-(3-bromopropargyl)-pyrrolidinium benzenesulfonate]",–,–,–,–,8,500,< 4,< 4
"CCCCCCCCCCCCCC[N+]1(CC#CBr)CCCC1 [Compound 1, 1-tetradecyl-1-(3-bromopropargyl)-pyrrolidinium 4-methylbenzenesulfonate]",8,> 500,< 4,< 4,–,–,–,–
"CCCCCCCCCCCCC[N+]1(CC#CBr)CCOCC1 [Compound 10, 1-tridecyl-1-(3-bromopropargyl)-morpholinium bromide]",32,250,16,< 4,–,–,–,–
"CCCCCCCCCCCCCC[N+]1(CC#CBr)CCOCC1 [Compound 9, 1-tetradecyl-1-(3-bromopropargyl)-morpholinium bromide]",–,–,–,–,8,125,< 4,< 4
"CCCCCCCCCCCCCC[N+]1(CC#CBr)CCOCC1 [Compound 7, 1-tetradecyl-1-(3-bromopropargyl)-morpholinium n-butanesulfonate]",–,–,–,–,16,500,< 4,< 4
"CCCCCCCCCCCCCCCC[N+]1(CC#CBr)CCOCC1 [Compound 11, 1-hexadecyl-1-(3-bromopropargyl)-morpholinium bromide]",–,500,–,–,16,–,< 4,< 4

# More lines, now with the values ahead:
MIC (Escherichia coli) [µg/mL],MIC (Pseudomonas aeruginosa) [µg/mL],MIC (Aspergillus niger) [µg/mL],MIC (Rhodotorula rubra) [µg/mL],MIC (TSB media) Ecol (Escherichia coli) [ppm],MIC (TSB media) Psae (Pseudomonas aeruginosa) [ppm],MIC (TSB media) Anig (Aspergillus niger) [ppm],MIC (TSB media) Rrub (Rhodotorula rubra) [ppm],Compound
> 500,1.6,1.6,1.6,–,–,–,–,"CCCCCCCC[N+](CC#CI)(CCCCCCCC)CCCCCCCC [Compound 34, reference compound]"
4,125,4,2,–,–,–,–,"CCCCCCCCCCCCCC[N+]1(CC#CI)CCCCC1 [Compound 33, reference compound]"
–,–,–,–,< 4,8,3.2,0.8,"CCCCCCCC[N+](CC#CBr)(CCCCCCCC)CCCCCCCC [Compound 20, trioctyl(3-bromopropargyl) ammonium 4-methylbenzenesulfonate]"
–,–,–,–,8,500,< 4,< 4,"CCCCCCCCCCCCCC[N+]1(CC#CBr)CCCCC1C (centres unmarked) [Compound 16, 1-tetradecyl-1-(3-bromopropargyl)-(2-methyl)piperidinium benzenesulfonate]"
16,250,< 4,< 4,–,–,–,–,"CCCCCCCC[N+](C)(C)CC#CBr [Compound 19, dimethyloctyl(3-bromopropargyl) ammonium benzenesulfonate]"
32,500,12.5,6.3,–,–,–,–,"CCCCCCCC[N+](C)(CC#CBr)CCCCCCCC [Compound 25, methyldioctyl(3-bromopropargyl) ammonium 4-methylbenzenesulfonate]"
500,500,> 50,> 50,–,–,–,–,"CCCCCCCCCCCC[N+](CC#CBr)(CCCCCCCCCCCC)CCCCCCCCCCCC [Compound 24, tridodecyl(3-bromopropargyl) ammonium 4-methylbenzenesulfonate]"
63,> 500,12.5,6.3,–,–,–,–,"CCCCCC[N+](CC#CI)(CCCCCC)CCCCCC [Compound 31, reference compound]"
–,–,–,–,< 4,32,< 4,< 4,"CCCCCCCCCCCCCC[N+]1(CC#CBr)CCCCC1 [Compound 17, 1-tetradecyl-1-(3-bromopropargyl)-piperidinium benzenesulfonate]"
< 4,16,1.6,1.6,–,–,–,–,"CCCCCCCC[N+](CC#CBr)(CCCCCCCC)CCCCCCCC [Compound 18, trioctyl-(3-bromopropargyl) ammonium benzenesulfonate]"
–,–,–,–,250,500,50,< 50,"CCCCCC[N+](CC#CBr)(CCCCCC)CCCCCC [Compound 23, trihexyl(3-bromopropargyl) ammonium 4-methylbenzenesulfonate]"
125,500,25,–,–,–,–,12.5,"CCCCCC[N+](CC#CBr)(CCCCCC)CCCCCC [Compound 22, trihexyl(3-bromopropargyl) ammonium benzenesulfonate]"
–,–,–,–,5,300,3.2,< 1,"CCCCCCCCCCCCCC[N+]1(CC#CBr)CCCCC1C (centres unmarked) [Compound 15, 1-tetradecyl-1-(3-bromopropargyl)-(2-methyl)piperidinium methanesulfonate]"
8,125,4,4,–,–,–,–,"CCCCCCCCCCCCCC[N+]1(CC#CI)CCOCC1 [Compound 32, reference compound]"
